# Laboratory results as given in patent EP0269311A2, “Methods of treating bone diseases by administration of a cysteine proteinase inhibitor” (Merck & Co., Inc., priority 1986, dated 1988).
# Legend:
# [1] = tested on: serine proteinases; details: cited from earlier work
# [2] = target: T1, papain (Carica papaya, UniProt P00784); details: with the disappearance of the thiol group of papain; cited from earlier work
# T1 sequence (P00784 134-345): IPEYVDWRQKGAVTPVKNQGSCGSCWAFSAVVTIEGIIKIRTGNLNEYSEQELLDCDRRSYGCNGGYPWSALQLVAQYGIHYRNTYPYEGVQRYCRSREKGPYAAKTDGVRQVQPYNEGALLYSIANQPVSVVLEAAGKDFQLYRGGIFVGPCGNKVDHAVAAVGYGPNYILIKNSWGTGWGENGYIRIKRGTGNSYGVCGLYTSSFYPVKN
# [3] = target: T2, cathepsin H (Homo sapiens, UniProt P09668); details: cited from earlier work
# T2 sequence (P09668 98-335): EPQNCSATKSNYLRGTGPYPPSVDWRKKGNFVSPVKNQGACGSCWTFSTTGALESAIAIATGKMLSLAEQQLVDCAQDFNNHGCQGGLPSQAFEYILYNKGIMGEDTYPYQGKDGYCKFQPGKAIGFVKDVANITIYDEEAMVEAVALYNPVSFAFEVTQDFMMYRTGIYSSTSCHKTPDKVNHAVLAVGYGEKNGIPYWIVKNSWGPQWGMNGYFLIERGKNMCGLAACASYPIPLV
# [4] = tested on: serum Ca⁺⁺; test: Rat model of secondary hyperparathyroidism (Ca++ deficient diet), serum Ca++; assay type: in vivo, Rats; details: intubated
# Description: In this model rats are fed a Ca⁺⁺ deficient diet, causing an enhanced release of parathyroid hormone (PTH) and secondary hyperparathyroidism. At this stage most of the serum Ca⁺⁺ is mobilized from bone. To maintain serum calcium levels within the normal range, bone resorption is stimulated by the released parathyroid hormone. This model was used to study the effect of Formula I compound on rats with secondary hyperparathyroidism. Rats (150-200 gr) were kept on a Ca⁺⁺ deficient diet for 7 days. Different doses of Formula I compound were intubated into animals (n=10) and serum Ca⁺⁺ was monitored at 0, 4, 8, 12 and 24 hours.
# [5] = tested on: serum Ca⁺⁺; test: Rat model of humoral hypercalcemia of malignancy (transplanted Rice 500 Leydig cell tumor), serum Ca++; assay type: in vivo, male Fisher rats; details: for Serum mg % Ca++: 40 mg/kg/day intubated once a day from two days after tumor transplantation
# Description: A rat model that closely mimics the human syndrome of Humoral Hypercalcemia of Malignancy was described by Insogna et al, Endocrinology 114, 888-896 (1984). In this model a Rice 500 Leydig cell tumor is transplated in male Fisher rats. […] These findings exactly parallel those in human humoral hypercalcemia of malignancy. The same model was used to study the effect of the formula I compound on lowering serum Ca⁺⁺ levels in rodents with established malignant hypercalcemia. Rats (150-200 gr) were intubated once a day with three different doses of the formula I compound including 10 mg, 25 mg and 80 mg/kg/day as shown in Figure 1. Control animals received no compound. The compound was given on days 10-15 after tumor transplantation when all animals were hypercalcemic. In experiment No. 2 (Table 1), rodents were intubated once a day with 40 mg/kg, of the formula I compound two days after tumor transplantation. These studies were utilized to examine whether the formula I compound could prevent tumor-induced hypercalcemia in these animals which generally appears 8-10 days after transplantation.
# [6] = target: cathepsin B (Homo sapiens, UniProt P07858); details: cited from earlier work
# [7] = tested on: metalloproteinases; details: cited from earlier work
compound,measurement,setting,value
"CC(C)C[C@H](NC(=O)[C@H]1O[C@@H]1C(=O)O)C(=O)NCCCCN=C(N)N [Formula I compound, epoxysuccinyl-leucylamido (4-guanidino)butane]",effect on serine proteinases,[1],unaffected
same,inhibition of papain,[2],inhibit
same,inhibition of cathepsin H,[3],inhibit
same,Serum mg % Ca++,"[4]; 10 mg, 0 hours",11.5 ± 0.5 mg %
same,Serum mg % Ca++,"[4]; 10 mg, 4 hours",10.6 ± 0.4 mg %
same,Serum mg % Ca++,"[4]; 10 mg, 8 hours",10.4 ± 0.5 mg %
same,Serum mg % Ca++,"[4]; 10 mg, 12 hours",10.2 ± 0.4 mg %
same,Serum mg % Ca++,"[4]; 10 mg, 24 hours",11.5 ± 0.6 mg %
same,Serum mg % Ca++,"[4]; 20 mg, 0 hours",11.3 ± 0.4 mg %
same,Serum mg % Ca++,"[4]; 20 mg, 4 hours",10.2 ± 0.3 mg %
same,Serum mg % Ca++,"[4]; 20 mg, 8 hours",9.7 ± 0.4 mg %
same,Serum mg % Ca++,"[4]; 20 mg, 12 hours",9.5 ± 0.3 mg %
same,Serum mg % Ca++,"[4]; 20 mg, 24 hours",12.0 ± 0.3 mg %
same,Serum mg % Ca++,"[4]; 60 mg, 0 hours",11.7 ± 0.6 mg %
same,Serum mg % Ca++,"[4]; 60 mg, 4 hours",9.8 ± 0.4 mg %
same,Serum mg % Ca++,"[4]; 60 mg, 8 hours",9.5 ± 0.3 mg %
same,Serum mg % Ca++,"[4]; 60 mg, 12 hours",8.9 ± 0.4 mg %
same,Serum mg % Ca++,"[4]; 60 mg, 24 hours",12.7 ± 0.4 mg %
same,drop of serum Ca⁺⁺,"[4]; most effective dose 40 mg/kg, in 12 hours",28.8%
same,Serum mg % Ca++,[5]; day 2,10.5 ± 0.3 mg %
same,Serum mg % Ca++,[5]; day 4,10.1 ± 0.4 mg %
same,Serum mg % Ca++,[5]; day 6,10.2 ± 0.2 mg %
same,Serum mg % Ca++,[5]; day 8,10.3 ± 0.3 mg %
same,Serum mg % Ca++,[5]; day 10,9.8 ± 0.4 mg %
same,Serum mg % Ca++,[5]; day 11,10.3 ± 0.4 mg %
same,Serum mg % Ca++,[5]; day 12,10.1 ± 0.3 mg %
same,Serum mg % Ca++,[5]; day 13,10.4 ± 0.4 mg %
same,Serum mg % Ca++,[5]; day 14,10.5 ± 0.3 mg %
same,Serum mg % Ca++,[5]; day 15,10.6 ± 0.4 mg %
same,tumor induced hypercalcemia (established),"[5]; given orally, 10 mg, 25 mg and 80 mg/kg/day on days 10-15 after tumor transplantation (Figure 1)",block
same,tumor induced hypercalcemia (prevention),"[5]; given orally, 40 mg/kg once a day from two days after tumor transplantation (Table I)",can prevent
same,inhibition of cathepsin B,[6],inhibit
same,effect on metalloproteinases,[7],unaffected
